Patent US11753404B2, “Aminothiazole compounds as c-Kit inhibitors” (Ariad Pharmaceuticals, Inc., priority 2016, dated 2023)

Legend:
[1] = test system: gastrointestinal stromal tumors (GIST); conditions: third line therapy; cited from earlier work
[2] = biological target: T1, BAF3 FL KIT EX11DEL/V654A (Homo sapiens, UniProt P10721, V654A, cells depend on it, form not given); test: c-Kit assay: Ba/F3 KIT mutant cell viability (Cell Titer-Glo, 72 hours); assay type: cell-based; conditions: viability after 72 hours
T1 construct: BAF3 FL KIT EX11DEL/V654A
T1 sequence (P10721 with tags, fused parts or gaps DEL557-558/V654A, form open): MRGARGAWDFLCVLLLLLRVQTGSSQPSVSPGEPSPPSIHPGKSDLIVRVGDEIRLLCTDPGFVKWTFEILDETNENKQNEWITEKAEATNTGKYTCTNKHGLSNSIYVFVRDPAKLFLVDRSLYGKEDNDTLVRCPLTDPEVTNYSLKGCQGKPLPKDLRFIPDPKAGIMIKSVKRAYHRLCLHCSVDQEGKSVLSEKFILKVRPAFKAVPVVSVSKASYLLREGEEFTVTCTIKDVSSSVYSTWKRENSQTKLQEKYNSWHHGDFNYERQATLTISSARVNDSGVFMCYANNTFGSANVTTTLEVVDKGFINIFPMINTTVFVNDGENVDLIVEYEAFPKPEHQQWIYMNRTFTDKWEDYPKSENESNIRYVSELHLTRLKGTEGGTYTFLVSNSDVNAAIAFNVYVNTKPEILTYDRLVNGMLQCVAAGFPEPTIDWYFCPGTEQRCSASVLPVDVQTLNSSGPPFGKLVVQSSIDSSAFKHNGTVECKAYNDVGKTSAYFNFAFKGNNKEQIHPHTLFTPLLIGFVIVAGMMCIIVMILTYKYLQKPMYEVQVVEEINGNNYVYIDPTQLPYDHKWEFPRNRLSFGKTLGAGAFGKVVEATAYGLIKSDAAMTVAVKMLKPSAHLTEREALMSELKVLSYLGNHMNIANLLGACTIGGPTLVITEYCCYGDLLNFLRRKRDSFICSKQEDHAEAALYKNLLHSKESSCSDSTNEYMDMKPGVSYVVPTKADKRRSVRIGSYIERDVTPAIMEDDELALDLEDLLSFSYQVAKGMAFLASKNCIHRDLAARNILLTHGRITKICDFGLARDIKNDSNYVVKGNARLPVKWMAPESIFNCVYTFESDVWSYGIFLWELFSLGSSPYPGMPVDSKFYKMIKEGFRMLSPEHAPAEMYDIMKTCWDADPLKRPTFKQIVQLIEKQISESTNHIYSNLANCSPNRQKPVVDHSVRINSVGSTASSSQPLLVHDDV
Procedure: (§1) Generation of DBa/F3 KIT Mutant Engineered Cell Lines
(§2) KIT cDNAs were synthesized by GenScript and cloned into the pLVX-IRES-Puro vector (Clontech). Viral particles were produced by transfecting pLVX-IRES-puro vectors containing KIT mutant genes into HEK293 cells (Invitrogen) using the Trans-Lentiviral ORF Packaging Kit (Thermo Scientific). 48 hours post-transfection, virus-containing supernatants were harvested and incubated for another 48-72 hours with parental Ba/F3 cells (DSMZ) in the presence of 10 ng/mL IL-3 (R&D Systems). Transduced Ba/F3 cells were then selected by IL-3 withdrawal and puromycin (0.5-1 μg/mL, Invitrogen).
(§3) Cell lines (e.g., EX11DEL, EX11DEL/D816H, EX11DEL/T670I, and EX11DEL/V654A) were plated into 384 well plates using RPMI 1640 supplemented with 10% FBS at densities that produced linear growth and incubated at 37° C. in 5% (v/v) CO2. Cells were treated with eight concentrations of compound over a 4-fold dilution (10 μM to 0.61 nM) and viability was assessed using Cell Titer-Glo assay (Promega) after 72 hours. Data were plotted as percent viability relative to vehicle-treated cells. Dose-responses curves were generated and used to calculate IC50 values.

[3] = biological target: T2, BAF3 FL KIT EX11DEL (Homo sapiens, UniProt P10721, cells depend on it, form not given); test: as above; assay type: cell-based; conditions: viability after 72 hours
T2 construct: BAF3 FL KIT EX11DEL
T2 sequence (P10721 with tags, fused parts or gaps DEL557-558): as the sequence (P10721 with tags, fused parts or gaps DEL557-558/V654A, form open) above, with A652V counted along it
Procedure: as §1, §2, §3

[4] = biological target: T3, BAF3 FL KIT EX11DEL/D816H (Homo sapiens, UniProt P10721, D816H, cells depend on it, form not given); test: as above; assay type: cell-based; conditions: viability after 72 hours
T3 construct: BAF3 FL KIT EX11DEL/D816H
T3 sequence (P10721 with tags, fused parts or gaps DEL557-558/D816H, form open): as the sequence (P10721 with tags, fused parts or gaps DEL557-558/V654A, form open) above, with A652V, D814H counted along it
Procedure: as §1, §2, §3

[5] = biological target: T4, BAF3 FL KIT EX11DEL/T670I (Homo sapiens, UniProt P10721, T670I, cells depend on it, form not given); test: as above; assay type: cell-based; conditions: viability after 72 hours
T4 construct: BAF3 FL KIT EX11DEL/T670I
T4 sequence (P10721 with tags, fused parts or gaps DEL557-558/T670I, form open): as the sequence (P10721 with tags, fused parts or gaps DEL557-558/V654A, form open) above, with A652V, T668I counted along it
Procedure: as §1, §2, §3

SMILES	ORR [1] [%]	median PFS [1] [months]	GI50 [2] [nM]	GI50 [3] [nM]	GI50 [4] [nM]	GI50 [5] [nM]
CNC(=O)c1cc(Oc2ccc(NC(=O)Nc3ccc(Cl)c(C(F)(F)F)c3)c(F)c2)ccn1 [Regorafenib]	4.5	4.8				
Cc1ccc(C(=O)Nc2cc(C(F)(F)F)ccn2)cc1C#Cc1cnc(NC(=O)N(C)C2CCC(O)CC2)s1 (stereo not drawn) [I-22, 3-((2-(3-(4-hydroxycyclohexyl)-3-methylureido)thiazol-5-yl)ethynyl)-4-methyl-N-(4-(trifluoromethyl)pyridin-2-yl)benzamide]			< 10	< 10	< 10	< 10
Cc1ccc(C(=O)Nc2cc(C(F)(F)F)ccn2)cc1C#Cc1cnc(NC(=O)N(C)C2CCC(N)CC2)s1 (stereo not drawn) [I-33, 3-((2-(3-(4-aminocyclohexyl)-3-methylureido)thiazol-5-yl)ethynyl)-4-methyl-N-(4-(trifluoromethyl)pyridin-2-yl)benzamide]			50 to 100	10 to 50	50 to 100	10 to 50
COC(=O)Nc1ncc(C#Cc2cc(C(=O)Nc3cc(C(F)(F)F)ccn3)ccc2C)s1 [I-3, methyl (5-((2-methyl-5-((4-(trifluoromethyl)pyridin-2-yl)carbamoyl)phenyl)ethynyl)thiazol-2-yl)carbamate]			10 to 50	< 10	10 to 50	10 to 50
Cc1ccc(C(=O)Nc2cc(C(F)(F)F)ccn2)cc1C#Cc1cnc(NC(=O)N2CCC(N(C)C)C2)s1 (stereo not drawn) [I-40, 3-(dimethylamino)-N-(5-((2-methyl-5-((4-(trifluoromethyl)pyridin-2-yl)carbamoyl)phenyl)ethynyl)thiazol-2-yl)pyrrolidine-1-carboxamide]			10 to 50	< 10	10 to 50	< 10
Cc1ccc(C(=O)Nc2cc(C(F)(F)F)ccn2)cc1C#Cc1cnc(NC(=O)NCCN)s1 [I-38, 3-((2-(3-(2-aminoethyl)ureido)thiazol-5-yl)ethynyl)-4-methyl-N-(4-(trifluoromethyl)pyridin-2-yl)benzamide]			50 to 100	< 10	50 to 100	50 to 100
Cc1ccc(C(=O)Nc2cc(C(F)(F)F)ccn2)cc1C#Cc1cnc(NC(=O)N(C)C2CCN(C)CC2)s1 [I-29, 4-methyl-3-((2-(3-methyl-3-(1-methylpiperidin-4-yl)ureido)thiazol-5-yl)ethynyl)-N-(4-(trifluoromethyl)pyridin-2-yl)benzamide]			10 to 50	< 10	< 10	< 10
Cc1ccc(C(=O)Nc2cc(C(F)(F)F)ccn2)cc1C#Cc1cnc(NC(=O)N2CCOCC2)s1 [I-35, N-(5-((2-methyl-5-((4-(trifluoromethyl)pyridin-2-yl)carbamoyl)phenyl)ethynyl)thiazol-2-yl)morpholine-4-carboxamide]			10 to 50	< 10	< 10	< 10
Cc1ccc(NC(=O)c2cc(C(F)(F)F)ccn2)cc1C#Cc1cnc(NC(=O)N(C)CCO)s1 [I-60, N-(3-((2-(3-(2-hydroxyethyl)-3-methylureido)thiazol-5-yl)ethynyl)-4-methylphenyl)-4-(trifluoromethyl)picolinamide]			10 to 50	< 10	10 to 50	50 to 100
Cc1ccc(C(=O)Nc2cc(C(F)(F)F)ccn2)cc1C#Cc1cnc(NC(=O)NC2CC2)s1 [I-17, 3-((2-(3-cyclopropylureido)thiazol-5-yl)ethynyl)-4-methyl-N-(4-(trifluoromethyl)pyridin-2-yl)benzamide]			10 to 50	< 10	10 to 50	10 to 50
Cc1ccc(C(=O)Nc2cc(C(F)(F)F)ccn2)cc1C#Cc1cnc(NC(=O)NCCCCN)s1 [I-31, 3-((2-(3-(4-aminobutyl)ureido)thiazol-5-yl)ethynyl)-4-methyl-N-(4-(trifluoromethyl)pyridin-2-yl)benzamide]			50 to 100	10 to 50	50 to 100	10 to 50
CNC(=O)Nc1ncc(C#Cc2cccc(C(=O)Nc3cc(C(F)(F)F)ccn3)c2)s1 [I-44, 3-((2-(3-methylureido)thiazol-5-yl)ethynyl)-N-(4-(trifluoromethyl)pyridin-2-yl)benzamide]			10 to 50	< 10	10 to 50	< 10
Cc1ccc(C(=O)Nc2cc(C(F)(F)F)ccn2)cc1C#Cc1cnc(NC(=O)N(C)CC(C)(C)O)s1 [I-21, 3-((2-(3-(2-hydroxy-2-methylpropyl)-3-methylureido)thiazol-5-yl)ethynyl)-4-methyl-N-(4-(trifluoromethyl)pyridin-2-yl)benzamide]			10 to 50	< 10	10 to 50	10 to 50
Cc1ccc(C(=O)Nc2cc(C(F)(F)F)ccn2)cc1C#Cc1cnc(NC(=O)N(C)C)s1 [I-1, 3-((2-(3,3-dimethylureido)thiazol-5-yl)ethynyl)-4-methyl-N-(4-(trifluoromethyl)pyridin-2-yl)benzamide]			< 10	< 10	< 10	< 10
Cc1ccc(C(=O)Nc2cc(C(F)(F)F)ccn2)cc1C#Cc1cnc(NC(=O)NCC2CCN(C)CC2)s1 [I-13, 4-methyl-3-((2-(3-((1-methylpiperidin-4-yl)methyl)ureido)thiazol-5-yl)ethynyl)-N-(4-(trifluoromethyl)pyridin-2-yl)benzamide]			10 to 50	< 10	10 to 50	10 to 50
Cc1ccc(C(=O)Nc2cc(C(F)(F)F)ccn2)cc1C#Cc1cnc(NC(=O)N(C)C2CN(C)C2)s1 [I-39, 4-methyl-3-((2-(3-methyl-3-(1-methylazetidin-3-yl)ureido)thiazol-5-yl)ethynyl)-N-(4-(trifluoromethyl)pyridin-2-yl)benzamide]			100 to 10000	10 to 50	100 to 10000	100 to 10000
Cc1ccc(C(=O)Nc2cc(C(F)(F)F)ccn2)cc1C#Cc1cnc(NC(N)=O)s1 [I-2, 4-methyl-N-(4-(trifluoromethyl)pyridin-2-yl)-3-((2-ureidothiazol-5-yl)ethynyl)benzamide]			< 10	< 10	10 to 50	< 10
